Results from patent publication US11147801B2, “Methods of use for trisubstituted benzotriazole derivatives as dihydroorotate oxygenase inhibitors” (Aurigene Discovery Technologies Limited, priority 2017, dated 2021).

Assays:
AML_5 tumor = experiment: Patient-derived AML xenograft model AML_5; type: in vivo, CB17 SCID mice; conditions: AML 5 patient-derived xenograft, 100 mg/kg BID PO
Method: (§1) A screen was next performed using a small number of mice/group to assess efficacy of Compound 1 in AML and DLBCL patient-derived xenograft models. Tumor-bearing mice (n=3/group) were treated with vehicle or Compound 1 at 100 mg/kg BID PO.

AML_2 tumor = experiment: Patient-derived AML xenograft model AML_2; type: in vivo, CB17 SCID mice; conditions: 100 mg/kg BID PO
Method: as §1

cancer lines = experiment: Cell growth assays with uridine supplemented into the medium (uridine rescue); type: cell-based
Method: To confirm that the effects of Compound 1 in impairing cell growth/viability were due to specific inhibition of DHODH, cell growth assays were performed with varying amounts of uridine supplemented into the medium.

SC-1 = experiment: Double-hit DLBCL 96-hr growth assay; type: cell-based, human; conditions: SC-1, double-hit DLBCL
Method: (§2) FIG. 8 is a curve showing the relative growth rate of OCILY18, SC-1 and CARNAVAL double hit diffuse large B cell lymphoma (DLBCL) cell lines treated with various concentrations of Compound 1 for 96 hours.

CARNAVAL = experiment: Double-hit DLBCL 96-hr growth assay; type: cell-based, human
Method: as §2

OCILY18 = experiment: Double-hit DLBCL 96-hr growth assay; type: cell-based, human
Method: as §2

OCILY-19 tumors = experiment: OCILY-19 diffuse large B-cell lymphoma xenograft model; type: in vivo, CB17 SCID mice
Method: 7×10^6 OCILY-19 cells were implanted subcutaneously into CB17 SCID mice. Mice (n=15-18/group) were treated with vehicle or Compound 1 at the indicated dose/frequency once tumors reached an average of ˜150 mm^3. Tissues were collected at the indicated timepoints post-last dose for PK and biomarker analyses.

[1] = system: cell lines of heme lineage; experiment: Follow-up screen on expanded panel of cell lines of heme lineage, 4-day growth assay; type: cell-based, human
Method: (§3) A follow-up screen was performed on an expanded panel of cell lines of heme lineage in a 4-day growth assay. Growth was assessed by Cell-Titer Glo measurements on day 0 and day 4.
(§4) Compound 1, of which diffuse large B cell lymphoma (DLBCL) lines were particularly sensitive (8/11 or 73%). A subset of the heme lines that were of intermediate sensitivity (defined as >50% and <75% growth rate inhibition) or insensitive (defined as <50% growth rate inhibition) to compound 1 in this follow-up screen were subjected to extended growth assays to evaluate if increased treatment time modulated their sensitivity profile. Specifically, these heme lines were pretreated with Compound 1 for three days at the indicated concentrations and then re-plated for a standard 4-day growth assay in fresh media/drug.

SUDHL5 = experiment: Tumor cell line panel screen, 72 hrs; type: cell-based; conditions: Homo sapiens, SU-DHL-5, SUDHL5, diffuse large B cell lymphoma
Method: (§5) A tumor cell line panel screen aimed at identifying tumor cell subsets that were particularly sensitive to inhibition of DHODH with Compound 1 was performed. Compound 1 is represented by the following structural formula: […]
(§6) These cell lines were treated with Compound 1 for a total of 72 hrs.
(§7) Table 1 is a list of some of the sensitive cell lines to Compound 1 along with GI50 values and max growth response. A maximum inhibition of 100 represents complete growth inhibition; a max inhibition value>100 represents cell killing.

MV411 = experiment: Tumor cell line panel screen, 72 hrs; type: cell-based; conditions: Homo sapiens, MV4-11, MV411, child acute myeloid leukemia
Method: as §5, §6, §7

SUDHL1 = experiment: Tumor cell line panel screen, 72 hrs; type: cell-based; conditions: Homo sapiens, SU-DHL-1, SUDHL1, anaplastic large cell lymphoma
Method: as §5, §6, §7

CJM = experiment: Tumor cell line panel screen, 72 hrs; type: cell-based; conditions: Homo sapiens, melanoma
Method: as §5, §6, §7

MINO = experiment: Tumor cell line panel screen, 72 hrs; type: cell-based; conditions: Homo sapiens, mantle cell lymphoma
Method: as §5, §6, §7

MOLM13 = experiment: Tumor cell line panel screen, 72 hrs; type: cell-based; conditions: Homo sapiens, MOLM-13, MOLM13, acute myeloid leukemia
Method: as §5, §6, §7

DU4475 = experiment: Tumor cell line panel screen, 72 hrs; type: cell-based; conditions: Homo sapiens, DU-4475, DU4475, triple negative breast cancer
Method: as §5, §6, §7

RL = experiment: Tumor cell line panel screen, 72 hrs; type: cell-based; conditions: Homo sapiens, non-Hodgkin's lymphoma
Method: as §5, §6, §7

JVM13 = experiment: Tumor cell line panel screen, 72 hrs; type: cell-based; conditions: Homo sapiens, JVM13, B-prolymphocytic leukemia
Method: as §5, §6, §7

JYSE150 = experiment: Tumor cell line panel screen, 72 hrs; type: cell-based; conditions: Homo sapiens, JYSE150, esophageal squamous cell carcinoma
Method: as §5, §6, §7

SUM159PT = experiment: Tumor cell line panel screen, 72 hrs; type: cell-based; conditions: Homo sapiens, SUM-159-PT, triple negative breast cancer
Method: as §5, §6, §7

OCILY8 = experiment: Tumor cell line panel screen, 72 hrs; type: cell-based; conditions: Homo sapiens, OCI-Ly8, OCILY8, diffuse large B cell lymphoma
Method: as §5, §6, §7

DU145 = experiment: Tumor cell line panel screen, 72 hrs; type: cell-based; conditions: Homo sapiens, DU-145, DU145, prostate cancer
Method: as §5, §6, §7

SR786 = experiment: Tumor cell line panel screen, 72 hrs; type: cell-based; conditions: Homo sapiens, SR-786, SR786, anaplastic large cell lymphoma
Method: as §5, §6, §7

KYSE510 = experiment: Tumor cell line panel screen, 72 hrs; type: cell-based; conditions: Homo sapiens, KYSE-510, KYSE510, esophageal squamous cell carcinoma
Method: as §5, §6, §7

Kasumi-3 = experiment: Heme line growth assay (Cell-Titer Glo), 4-day and extended 7-day; type: cell-based, human
Method: as §3, §4

Kasumi-6 = experiment: as above; type: cell-based, human
Method: as §3, §4

GDM-1 = experiment: as above; type: cell-based, human
Method: as §3, §4

SKNO-1 = experiment: as above; type: cell-based, human
Method: as §3, §4

## Cc1ccccc1-c1ccc(-c2cc(C(=O)O)c3c(c2)nnn3C)cc1 [Compound 1, 1-methyl-5-(2′-methyl-[1,1′-biphenyl]-4-yl)-1H-benzo[d][1,2,3]triazole-7-carboxylic Acid]
AML_5 tumor
  TGI: > 60%
AML_2 tumor
  TGI: > 60%
Cancer lines; supraphysiologic uridine (25 μM and 100 μM), up to 10 μM of compound
  Rescue of growth effects by exogenous uridine: completely rescued
Cancer lines; uridine close to physiologic (5 μM)
  Rescue of growth effects by exogenous uridine: partially rescued
SC-1
  Sensitivity to growth inhibition: highly sensitive
CARNAVAL
  Sensitivity to growth inhibition: highly sensitive
OCILY18
  Sensitivity to growth inhibition: highly sensitive
OCILY-19 tumors; 100 mg/kg BID compared to 10 and 30 mg/kg BID
  Efficacy of dosing regimen: superior efficacy
OCILY-19 tumors; 100 mg/kg BID versus 10 and 30 mg/kg BID, OCILY-19 tumors
  Tumor DHO: larger increase
OCILY-19 tumors; 100 mg/kg BID, OCILY-19 tumors
  Total tumor uridine pools: decrease
OCILY-19 tumors; 200 mg/kg QD compared to 100 mg/kg BID
  Efficacy of dosing regimen: less efficacious
OCILY-19 tumors; OCILY-19 DLBCL xenograft, CB17 SCID mice
  In vivo tumor growth: strong block in in vivo tumor growth
OCILY-19 tumors; mice
  Half-life in mice: short half-life
[1]; 8/11 lines
  Share of diffuse large B cell lymphoma (DLBCL) lines that were sensitive: 73%
[1]; 20/80 lines
  Share of the heme lines screened that exhibited sensitivity: 25%
SUDHL5
  GI50: 20 nM
MV411
  GI50: 270 nM
SUDHL1
  GI50: 40 nM
CJM
  GI50: 620 nM
MINO
  GI50: 30 nM
MOLM13
  GI50: 60 nM
DU4475
  GI50: 100 nM
RL
  GI50: 80 nM
JVM13
  GI50: 20 nM
JYSE150
  GI50: 100 nM
SUM159PT
  GI50: 140 nM
OCILY8
  GI50: 20 nM
DU145
  GI50: 480 nM
SR786
  GI50: 50 nM
KYSE510
  GI50: 130 nM
Kasumi-3; Kasumi-3, 3 days pretreatment then 4-day growth assay
  Sensitivity 7-day: * (insensitive)
Kasumi-3; Kasumi-3, acute myeloid leukemia, 4-day growth assay
  Sensitivity 4-day: * (insensitive)
Kasumi-6; Kasumi-6, 3 days pretreatment then 4-day growth assay
  Sensitivity 7-day: * (insensitive)
Kasumi-6; Kasumi-6, acute myeloid leukemia, 4-day growth assay
  Sensitivity 4-day: * (insensitive)
GDM-1; GDM-1, 3 days pretreatment then 4-day growth assay
  Sensitivity 7-day: ** (intermediate)
GDM-1; GDM-1, acute myeloid leukemia, 4-day growth assay
  Sensitivity 4-day: * (insensitive)
SKNO-1; SKNO-1, 3 days pretreatment then 4-day growth assay
  Sensitivity 7-day: ** (intermediate)
SKNO-1; SKNO-1, acute myeloid leukemia, 4-day growth assay
  Sensitivity 4-day: * (insensitive)
